Earlier results as cited in patent EP0584511B1, “PROCESS FOR THE PREPARATION OF A COMPOSITE TEXTILE MATERIAL” (ALCANTARA S.p.A., priority 1992, dated 1994).

Settings: substituted aromatic amines proposed as replacement extenders; background statement

Row | Compound | classification at Ames's test
1 | Cc1cc(Cc2cc(C)c(N)c(C(C)C)c2)cc(C(C)C)c1N [4-4' methylene-bis-(2 isopropyl-6 methylaniline)] | non cancerogenic
2 | CCc1cc(Cc2cc(CC)c(N)c(CC)c2Cl)c(Cl)c(CC)c1N [4-4' methylene-bis-(3-chloro-2,6-diethylaniline)] | non cancerogenic
3 | diethyltoluene diamine | non cancerogenic
